This is an account of results in patent US9670227B2, “Thienopyrimidine derivatives, a process for their preparation and pharmaceutical compositions containing them” (LES LABORATOIRES SERVIER, priority 2013, dated 2017).

Read-outs that look alike come from different tables or passages of the source.

One test concerns the target Mcl-1 protein (UniProtKB primary accession number: Q07820) (Homo sapiens, UniProt Q07820). In words: Inhibition of Mcl-1 by fluorescence polarisation, Method 1. The test is classed as binding. To be noted: read-out: IC50 (M) Mcl-1 FP. The gist of the method:
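FP competition, 11-point compound titration in 5% final DMSO; protein and labelled probe at 5 nM and 1 nM final in HEPES/NaCl/Tween 20 buffer, pH 7.4.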
(In general: Fluorescence polarisation rises when a labelled molecule tumbles more slowly, as on binding a larger partner.)

Test [1] concerns H929 multiple myeloma tumour line. In words: In vitro cytotoxicity, Microculture Tetrazolium Assay. To be noted: Homo sapiens, NCI-H929, 48 h, read-out: IC50 (μM) MTT H929. The test is classed as cell-based. The procedure:
The cytotoxicity studies were carried out on the H929 multiple myeloma tumour line.
The cells are distributed onto microplates and exposed to the test compounds for 48 hours.

Where [2] appears, read: fluorescence polarisation test, Method 2 values are underlined in the patent (underlining not visible here).
The mark [3] stands for this setting: H929 cells, 48 hours exposure, MTT.
Where [4] appears, read: fluorescence polarisation, Method 1, or Method 2.

Mcl-1 protein, sequence (Q07820 whole entry): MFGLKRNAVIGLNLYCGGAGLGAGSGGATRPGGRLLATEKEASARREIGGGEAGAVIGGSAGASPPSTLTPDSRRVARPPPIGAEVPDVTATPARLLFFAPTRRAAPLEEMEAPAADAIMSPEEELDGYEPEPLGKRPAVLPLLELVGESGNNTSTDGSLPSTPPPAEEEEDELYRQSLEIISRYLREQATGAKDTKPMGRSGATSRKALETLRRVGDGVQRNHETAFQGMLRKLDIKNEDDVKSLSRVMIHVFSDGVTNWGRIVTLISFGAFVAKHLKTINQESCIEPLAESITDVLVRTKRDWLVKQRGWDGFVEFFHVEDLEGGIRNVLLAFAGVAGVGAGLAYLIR

Consider `COc1ccccc1C[C@@H](Oc1ncnc2sc(-c3ccco3)c(-c3ccc(OCCN4CCN(C)CC4)c(Cl)c3F)c12)C(=O)O` [Example 337, (2R)-2-{[5-{3-chloro-2-fluoro-4-[2-(4-methylpiperazin-1-yl)ethoxy]phenyl}-6-(furan-2-yl)thieno[2,3-d]pyrimidin-4-yl]oxy}-3-(2-methoxyphenyl)propanoic acid], for which the IC50 was determined as 3.8e-08 M at Mcl-1 protein (setting [2]) and 1.87 µM in test [1] (setting [3]).
With `CCCCn1nccc1COc1ccccc1CC(Oc1ncnc2sc(-c3ccc(N4CCOCC4)nc3)c(-c3ccc(OCCN4CCN(C)CC4)c(Cl)c3C)c12)C(=O)O` [Example 619, (2R)-3-{2-[(1-butyl-1H-pyrazol-5-yl)methoxy]phenyl}-2-[((5Sa)-5-{3-chloro-2-methyl-4-[2-(4-methylpiperazin-1-yl)ethoxy]phenyl}-6-[6-(morpholin-4-yl)pyridin-3-yl]thieno[2,3-d]pyrimidin-4-yl)oxy]propanoic acid], the IC50 is 7e-09 M on Mcl-1 protein (setting [4]) and 0.336 µM in test [1] (setting [3]).
Regarding `Cc1c(-c2c(-c3ccco3)sc3ncnc(OC(Cc4ccccc4OCc4ccnn4C4CCCC4)C(=O)O)c23)ccc(OCCN2CCN(C)CC2)c1Cl` [Example 262, (2R)-2-{[(5Sa)-5-{3-chloro-2-methyl-4-[2-(4-methylpiperazin-1-yl)ethoxy]phenyl}-6-(furan-2-yl)thieno[2,3-d]pyrimidin-4-yl]oxy}-3-{2-[(1-cyclopentyl-1H-pyrazol-5-yl)methoxy]phenyl}propanoic acid], the IC50 on Mcl-1 protein (setting [2]) was determined as 3.9e-09 M; in test [1] (setting [3]), 0.023 µM.
On the same counts, the results for `COCCSc1nccc(COc2ccccc2CC(Oc2ncnc3sc(-c4ccc(F)cc4)c(-c4ccc(OCCN5CCN(C)CC5)c(Cl)c4C)c23)C(=O)O)n1` [Example 67, (2R)-2-{[(5Sa)-5-{3-chloro-2-methyl-4-[2-(4-methylpiperazin-1-yl)ethoxy]phenyl}-6-(4-fluorophenyl)thieno[2,3-d]pyrimidin-4-yl]oxy}-3-[2-({2-[(2-methoxyethyl)sulfanyl]pyrimidin-4-yl}methoxy)phenyl]propanoic acid] are 3.4e-09 M and 0.03 µM.
`Cc1c(-c2c(-c3ccco3)sc3ncnc(OC(Cc4ccccc4OCc4ccc(F)cn4)C(=O)O)c23)ccc(OCCN2CCN(C)CC2)c1Cl` [Example 232, (2R)-2-{[(5Sa)-5-{3-chloro-2-methyl-4-[2-(4-methylpiperazin-1-yl)ethoxy]phenyl}-6-(furan-2-yl)thieno[2,3-d]pyrimidin-4-yl]oxy}-3-{2-[(5-fluoropyridin-2-yl)methoxy]phenyl}propanoic acid]: the results for the IC50 (on Mcl-1 protein (setting [2]); in test [1] (setting [3])) were 9e-09 M and 0.046 µM, respectively.
On the same counts, the results for `Cc1c(-c2c(-c3ccc(F)o3)sc3ncnc(OC(Cc4ccccc4OCc4cnccn4)C(=O)O)c23)ccc(OCCN(C)C)c1Cl` [Example 206, (2R)-2-{[(5Sa)-5-{3-chloro-4-[2-(dimethylamino)ethoxy]-2-methylphenyl}-6-(5-fluorofuran-2-yl)thieno[2,3-d]pyrimidin-4-yl]oxy}-3-[2-(pyrazin-2-ylmethoxy)phenyl]propanoic acid] are 8e-09 M and 0.135 µM.
As to `Cc1c(-c2c(-c3ccc(F)cc3)sc3ncnc(OC(Cc4ccccc4OCc4ccnc(C(F)(F)F)n4)C(=O)O)c23)ccc(OCCN2CCN(C)CC2)c1Cl` [Example 25, (2R)-2-{[(5Sa)-5-{3-chloro-2-methyl-4-[2-(4-methylpiperazin-1-yl)ethoxy]phenyl}-6-(4-fluorophenyl)thieno[2,3-d]pyrimidin-4-yl]oxy}-3-(2-{[2-(trifluoromethyl)pyrimidin-4-yl]methoxy}phenyl)propanoic acid], the IC50 at Mcl-1 protein (setting [2]) was found to be 5.6e-09 M; in test [1] (setting [3]) it was 0.074 µM.
Taken in the same sequence, the figures for `Cc1c(-c2c(-c3ccc(F)cc3)sc3ncnc(OC(Cc4ccccc4OCc4ccnn4CC4CCCCC4)C(=O)O)c23)ccc(OCCN2CCN(C)CC2)c1Cl` [Example 80, (2R)-2-{[(5Sa)-5-{3-chloro-2-methyl-4-[2-(4-methylpiperazin-1-yl)ethoxy]phenyl}-6-(4-fluorophenyl)thieno[2,3-d]pyrimidin-4-yl]oxy}-3-(2-{[1-(cyclohexylmethyl)-1H-pyrazol-5-yl]methoxy}phenyl)propanoic acid] were 4.5e-09 M and 0.035 µM.
On the same counts, the results for `Cc1c(-c2c(-c3ccco3)sc3ncnc(OC(Cc4ccccc4OCc4cnn(C)c4)C(=O)O)c23)ccc(OCCN2CCN(C)CC2)c1Cl` [Example 279, (2R)-2-{[(5Sa)-5-{3-chloro-2-methyl-4-[2-(4-methylpiperazin-1-yl)ethoxy]phenyl}-6-(furan-2-yl)thieno[2,3-d]pyrimidin-4-yl]oxy}-3-{2-[(1-methyl-1H-pyrazol-4-yl)methoxy]phenyl}propanoic acid] are 8e-09 M and 0.406 µM.
With `CCN1CCN(CCOc2ccc(-c3c(-c4ccco4)sc4ncnc(OC(Cc5ccccc5OCCOC)C(=O)O)c34)c(C)c2Cl)CC1` [Example 669, (2R)-2-{[(5Sa)-5-{3-chloro-4-[2-(4-ethylpiperazin-1-yl)ethoxy]-2-methylphenyl}-6-(furan-2-yl)thieno[2,3-d]pyrimidin-4-yl]oxy}-3-[2-(2-methoxyethoxy)phenyl]propanoic acid], the figures for the IC50 (at Mcl-1 protein (setting [4]); in test [1] (setting [3])) were 4.9e-09 M and 0.108 µM, respectively.
For `Cc1cc(COc2ccccc2CC(Oc2ncnc3sc(-c4ccc(F)o4)c(-c4ccc(OCCN5CCN(C)CC5)c(Cl)c4C)c23)C(=O)O)ncn1` [Example 161, (2R)-2-{[(5Sa)-5-{3-chloro-2-methyl-4-[2-(4-methylpiperazin-1-yl)ethoxy]phenyl}-6-(5-fluorofuran-2-yl)thieno[2,3-d]pyrimidin-4-yl]oxy}-3-{2-[(6-methylpyrimidin-4-yl)methoxy]phenyl}propanoic acid], the results for the IC50 (on Mcl-1 protein (setting [2]); in test [1] (setting [3])) were 3.9e-09 M and 0.081 µM, respectively.
Consider `Cc1c(-c2c(-c3ccco3)sc3ncnc(OC(Cc4ccccc4OCc4cccc(N5CCCC5)n4)C(=O)O)c23)ccc(OCCN2CCN(C)CC2)c1Cl` [Example 237, (2R)-2-{[(5Sa)-5-{3-chloro-2-methyl-4-[2-(4-methylpiperazin-1-yl)ethoxy]phenyl}-6-(furan-2-yl)thieno[2,3-d]pyrimidin-4-yl]oxy}-3-(2-{[6-(pyrrolidin-1-yl)pyridin-2-yl]methoxy}phenyl)propanoic acid], for which the IC50 at Mcl-1 protein (setting [2]) amounted to 1.5e-08 M; in test [1] (setting [3]) it was 0.186 µM.
Regarding `COc1ccccc1-c1nccc(COc2ccccc2CC(Oc2ncnc3sc(-c4ccc(OCc5ccccc5C)cc4)c(-c4ccc(OCCN5CCN(C)CC5)c(Cl)c4C)c23)C(=O)O)n1` [Example 767, (2R)-2-[((5Sa)-5-{3-chloro-2-methyl-4-[2-(4-methylpiperazin-1-yl)ethoxy]phenyl}-6-{4-[(2-methylbenzyl)oxy]phenyl}thieno[2,3-d]pyrimidin-4-yl)oxy]-3-(2-{[2-(2-methoxyphenyl)pyrimidin-4-yl]methoxy}phenyl)propanoic acid], the IC50 at Mcl-1 protein (setting [4]) came to 1.73e-09 M; in test [1] (setting [3]), 0.05 µM.
For the compound `CCOCCOc1nccc(COc2ccccc2CC(Oc2ncnc3sc(-c4ccc(F)cc4)c(-c4ccc(OCCN5CCN(C)CC5)c(Cl)c4C)c23)C(=O)O)n1` [Example 64, (2R)-2-{[(5Sa)-5-{3-chloro-2-methyl-4-[2-(4-methylpiperazin-1-yl)ethoxy]phenyl}-6-(4-fluorophenyl)thieno[2,3-d]pyrimidin-4-yl]oxy}-3-(2-{[2-(2-ethoxyethoxy)pyrimidin-4-yl]methoxy}phenyl)propanoic acid], the concentration for half-maximal inhibition (IC50) was determined as 4.4e-09 M on Mcl-1 protein (setting [2]) and 0.018 µM in test [1] (setting [3]).
On the same counts, the results for `CCCCCn1nccc1COc1ccccc1CC(Oc1ncnc2sc(-c3ccc(F)cc3)c(-c3ccc(OCCN4CCN(C)CC4)c(Cl)c3C)c12)C(=O)O` [Example 85, (2R)-2-{[(5Sa)-5-{3-chloro-2-methyl-4-[2-(4-methylpiperazin-1-yl)ethoxy]phenyl}-6-(4-fluorophenyl)thieno[2,3-d]pyrimidin-4-yl]oxy}-3-{2-[(1-pentyl-1H-pyrazol-5-yl)methoxy]phenyl}propanoic acid] are 3.6e-09 M and 0.063 µM.
Turning to `CC#Cc1sc2ncnc(OC(Cc3ccccc3OC)C(=O)O)c2c1-c1ccc(OCCN(C(C)C)C(C)C)c(Cl)c1C` [Example 466, (2R)-2-{[(5Sa)-5-(3-chloro-4-{2-[di(propan-2-yl)amino]ethoxy}-2-methylphenyl)-6-(prop-1-yn-1-yl)thieno[2,3-d]pyrimidin-4-yl]oxy}-3-(2-methoxyphenyl)propanoic acid], the IC50 on Mcl-1 protein (setting [4]) came to 3.9e-08 M; in test [1] (setting [3]), 3.35 µM.
Regarding `Cc1c(-c2c(-c3ccco3)sc3ncnc(OC(Cc4ccccc4OCc4ccnn4CC(F)(F)F)C(=O)O)c23)ccc(OCCN2CCN(C)CC2)c1Cl` [Example 265, (2R)-2-{[(5Sa)-5-{3-chloro-2-methyl-4-[2-(4-methylpiperazin-1-yl)ethoxy]phenyl}-6-(furan-2-yl)thieno[2,3-d]pyrimidin-4-yl]oxy}-3-(2-{[1-(2,2,2-trifluoroethyl)-1H-pyrazol-5-yl]methoxy}phenyl)propanoic acid], the IC50 in test [1] (setting [3]) worked out at 0.016 µM.
On to `Cc1c(-c2c(-c3ccc(F)o3)sc3ncnc(OC(Cc4ccccc4OCc4ccnn4CC(F)(F)F)C(=O)O)c23)ccc(OCCN2CCN(C)CC2)c1Cl` [Example 185, (2R)-2-{[(5Sa)-5-{3-chloro-2-methyl-4-[2-(4-methylpiperazin-1-yl)ethoxy]phenyl}-6-(5-fluorofuran-2-yl)thieno[2,3-d]pyrimidin-4-yl]oxy}-3-(2-{[1-(2,2,2-trifluoroethyl)-1H-pyrazol-5-yl]methoxy}phenyl)propanoic acid], for which, in test [1], the IC50 was 0.012 µM.

The term IC50 denotes the concentration needed to halve the response being measured.
